Measured values as given in PubChem BioAssay (NCI).
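Method: 48-hour compound exposure of cells in 96-well plates, five concentrations, linear interpolation of endpoints. Abbreviation: GI50, concentration required for 50% inhibition of growth. At the TGI there is no net growth.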

What was measured:
Assay in all cases: NCI anticancer screen, dose series, 48 h
ACHN renal = test system: ACHN renal
CAKI-1 renal = test system: CAKI-1 renal
NCI-H460 lung = test system: NCI-H460 lung
SF-539 CNS = test system: SF-539 CNS
SK-OV-3 ovarian = test system: SK-OV-3 ovarian
OVCAR-4 ovarian = test system: OVCAR-4 ovarian
HOP-62 NSCLC = test system: HOP-62 NSCLC
RPMI-8226 leukemia = test system: RPMI-8226 leukemia
NCI-H23 lung = test system: NCI-H23 lung
NCI/ADR-RES ovarian = test system: NCI/ADR-RES ovarian
MALME-3M melanoma = test system: MALME-3M melanoma
SN12C renal = test system: SN12C renal
EKVX NSCLC = test system: EKVX NSCLC
UO-31 renal = test system: UO-31 renal
T-47D breast = test system: T-47D breast
OVCAR-3 ovarian = test system: OVCAR-3 ovarian
DU-145 prostate = test system: DU-145 prostate
NCI-H226 lung = test system: NCI-H226 lung
UACC-257 melanoma = test system: UACC-257 melanoma
A549 NSCLC = test system: A549 NSCLC
SK-MEL-5 melanoma = test system: SK-MEL-5 melanoma
MCF7 breast = test system: MCF7 breast
RXF 393 renal = test system: RXF 393 renal
OVCAR-8 ovarian = test system: OVCAR-8 ovarian
HCT-15 colon = test system: HCT-15 colon
M14 melanoma = test system: M14 melanoma
SF-295 CNS = test system: SF-295 CNS
NCI-H522 lung = test system: NCI-H522 lung
HL-60(TB) leukemia = test system: HL-60(TB) leukemia

Q: `C#Cc1cccc(NC(=O)Nc2ccccc2NC(=O)CCl)c1` was tested. Which TGI (ACHN renal) did it give?
A: Its TGI is 30.6 µM.

Q: What about the GI50 (CAKI-1 renal) of the same compound?
A: The GI50 was 15.1 µM.

Q: And the TGI (CAKI-1 renal)?
A: The TGI was 33.8 µM.

Q: And the GI50 (NCI-H460 lung)?
A: Its GI50 is 16.5 µM.

Q: And the TGI (NCI-H460 lung)?
A: The TGI was 33.9 µM.

Q: What about the GI50 (SF-539 CNS) of the same compound?
A: Its GI50 is 13.8 µM.

Q: And the TGI (SF-539 CNS)?
A: The TGI was 32.4 µM.

Q: What about the GI50 (SK-OV-3 ovarian) of the same compound?
A: Its GI50 is > 82.5 µM.

Q: And the TGI (SK-OV-3 ovarian)?
A: The TGI was > 82.5 µM.

Q: What about the GI50 (OVCAR-4 ovarian) of the same compound?
A: The GI50 was 16 µM.

Q: And the TGI (OVCAR-4 ovarian)?
A: Its TGI is 41 µM.

Q: What about the GI50 (HOP-62 NSCLC) of the same compound?
A: Its GI50 is 25.9 µM.

Q: And the TGI (HOP-62 NSCLC)?
A: Its TGI is > 82.5 µM.

Q: And the GI50 (RPMI-8226 leukemia)?
A: Its GI50 is 15.2 µM.

Q: And the TGI (RPMI-8226 leukemia)?
A: Its TGI is > 82.5 µM.

Q: And the GI50 (NCI-H23 lung)?
A: Its GI50 is 16.9 µM.

Q: What about the TGI (NCI-H23 lung) of the same compound?
A: The TGI was 48.5 µM.

Q: And the GI50 (NCI/ADR-RES ovarian)?
A: The GI50 was 23.4 µM.

Q: And the TGI (NCI/ADR-RES ovarian)?
A: Its TGI is 75.5 µM.

Q: What about the GI50 (MALME-3M melanoma) of the same compound?
A: The GI50 was 19.5 µM.

Q: What about the TGI (MALME-3M melanoma) of the same compound?
A: The TGI was 56.7 µM.

Q: And the GI50 (SN12C renal)?
A: Its GI50 is 15.1 µM.

Q: And the TGI (SN12C renal)?
A: Its TGI is 33.5 µM.

Q: What about the GI50 (EKVX NSCLC) of the same compound?
A: The GI50 was 19.3 µM.

Q: What about the TGI (EKVX NSCLC) of the same compound?
A: Its TGI is 66.2 µM.

Q: And the GI50 (UO-31 renal)?
A: Its GI50 is 11.1 µM.

Q: And the TGI (UO-31 renal)?
A: Its TGI is 21.6 µM.

Q: What about the GI50 (T-47D breast) of the same compound?
A: Its GI50 is 31.1 µM.

Q: What about the TGI (T-47D breast) of the same compound?
A: Its TGI is > 82.5 µM.

Q: And the GI50 (OVCAR-3 ovarian)?
A: Its GI50 is 13.5 µM.

Q: What about the TGI (OVCAR-3 ovarian) of the same compound?
A: Its TGI is 25.5 µM.

Q: And the GI50 (DU-145 prostate)?
A: The GI50 was 28.9 µM.

Q: And the TGI (DU-145 prostate)?
A: The TGI was > 82.5 µM.

Q: And the GI50 (NCI-H226 lung)?
A: Its GI50 is 16 µM.

Q: What about the TGI (NCI-H226 lung) of the same compound?
A: Its TGI is 34.1 µM.

Q: What about the GI50 (UACC-257 melanoma) of the same compound?
A: Its GI50 is 26.7 µM.

Q: What about the TGI (UACC-257 melanoma) of the same compound?
A: Its TGI is > 82.5 µM.

Q: What about the GI50 (A549 NSCLC) of the same compound?
A: Its GI50 is 25.4 µM.

Q: What about the TGI (A549 NSCLC) of the same compound?
A: Its TGI is > 82.5 µM.

Q: And the GI50 (SK-MEL-5 melanoma)?
A: Its GI50 is 14.2 µM.

Q: And the TGI (SK-MEL-5 melanoma)?
A: Its TGI is 26.9 µM.

Q: And the GI50 (MCF7 breast)?
A: The GI50 was 16.6 µM.

Q: What about the TGI (MCF7 breast) of the same compound?
A: Its TGI is > 82.5 µM.

Q: And the GI50 (RXF 393 renal)?
A: The GI50 was 12.1 µM.

Q: What about the TGI (RXF 393 renal) of the same compound?
A: Its TGI is 26.1 µM.

Q: And the GI50 (OVCAR-8 ovarian)?
A: The GI50 was 27.1 µM.

Q: And the TGI (OVCAR-8 ovarian)?
A: Its TGI is > 82.5 µM.

Q: What about the GI50 (HCT-15 colon) of the same compound?
A: Its GI50 is 15.1 µM.

Q: And the TGI (HCT-15 colon)?
A: Its TGI is 41.6 µM.

Q: And the GI50 (M14 melanoma)?
A: The GI50 was 27.8 µM.

Q: And the TGI (M14 melanoma)?
A: The TGI was > 82.5 µM.

Q: And the GI50 (SF-295 CNS)?
A: Its GI50 is 39.4 µM.

Q: And the TGI (SF-295 CNS)?
A: The TGI was > 82.5 µM.

Q: What about the GI50 (NCI-H522 lung) of the same compound?
A: The GI50 was 20.8 µM.

Q: And the TGI (NCI-H522 lung)?
A: The TGI was 71.5 µM.

Q: What about the GI50 (HL-60(TB) leukemia) of the same compound?
A: Its GI50 is 25.2 µM.

Q: And the TGI (HL-60(TB) leukemia)?
A: The TGI was > 82.5 µM.
